Measurements: US11807852B2, “Compositions and methods for reactivating latent immunodeficiency virus” (The J. David Gladstone Institutes, a testamentary trust …, priority 2014, dated 2023)

Key:
[1] = system: latent HIV-1 in human lymphocyte aggregate cultures (HLAC) from tonsils; assay: Ex vivo infected tonsil HLAC latency model, HIV-luciferase reporter virus; format: cell-based; conditions: in combination with JQ1
Method: HLAC cells were isolated by Ficoll-Histopaque density gradient centrifugation of sheared tonsils from HIV-seronegative donors (Vanderbilt University Medical Center, Nashville, Tenn.). Isolated HLAC cells were counted, collected as pellets by centrifugation at 1500 rpm for 5 min at room temperature, and re-suspended in the appropriate volume of concentrated viral NL4.3-Luc supernatant. Typically, 50-100 ng of p24 Gag per […] HLAC were used. Spinoculations were performed in 96-well V-bottom plates in volumes of 200 μl or less. Cells and virus were centrifuged at 2000 rpm for 1.5-2 h at room temperature. After spinoculation, cells were pooled and cultured at 1×10^6 cells/ml in RPMI 1640 containing 10% FBS and supplemented with 5 μM Saquinavir (Sigma-Aldrich) for 3 days to prevent any residual spreading infection.
For reactivation of latent HIV-1 provirus, cells were counted and collected as pellets by centrifugation at 1500 rpm for 10 min. […] After 15 min of lysis, the luciferase activity in cell extracts was quantified with a Perkin Elmer EnSpire 2300 Multimode plate reader after mixing 20 μl of lysate with 100 μl of substrate (Luciferase Assay System-Promega). Relative light units (RLU) were normalized to protein content determined by Bradford assay (BioRad). Cell viability was measured with CellTiter-Blue Cell Viability Assay (Promega).

[2] = system: CD4+ T cells from HIV-1-infected individuals; assay: T-cell activation markers CD69 and CD25, flow cytometry; format: cell-based, human; conditions: at the indicated concentrations (up to 500 nM)
Source text: FIGS. 15 A-G depict the structural formulae for AZ505, AZ506, and AZ391, and the reactivation of latent HIV-1 with SMYD2 inhibitor X2 (AZ391) in CD4^+ T cells from HIV-1 infected individuals. (A) Structures of each compound are shown. (B) Intracellular HIV-1 mRNA levels in CD4^+ T cells, obtained from an infected individual (#1036) and treated ex vivo with AZ391, JQ1 or a combination of both, in indicated concentrations, presented as fold induction relative to DMSO control. Activation with αCD3/αCD28-Dynabeads was performed as control. (C) Flow cytometry of T-cell activation markers CD69 and CD25 in the same experiment. For each treatment group, CD69^+ (left) and CD25^+ (right). Shown as percentage of positive cells relative to αCD3/αCD28-treated cells (D) Cell viability as measured by CellTiter-Blue® Cell Viability assay (Promega) and Zombie Violet Fixable Viability kit (BioLegend) and presented as percentage of DMSO control treated cells. Data points indicate average of three technical replicates of donor #1036. (E-G) Same experiments as in b-d but performed with CD4^+ T cells obtained from three additional individuals (2013, 2185, 2511) with a single concentration of AZ391 (500 nM). In f and g, average of the three biological replicates (±SD) is show. For (F), for each treatment group, CD69^+ (left) and CD25^+ (right). […]

Compound: N#Cc1cc(C(=O)NCCCN2CCCC2)cc(-c2ccccc2N2CCN(CCc3c[nH]c4ccccc34)CC2)c1 [AZ391]
- reactivation of latent HIV-1 (luciferase) [1]: Positive effects
- reactivation of latent HIV-1 (luciferase) ([1]; listed as X2): reactivates latent HIV-1
- global T-cell activation (CD69, CD25) [2]: No increase in global T-cell activation
